Data: patent US7378413B2, “2-amino-3-(alkyl)-pyrimidone derivatives” (Sanofi Aventis, priority 2000, dated 2008)

melting point	Structure (SMILES)
171.7 to 171.9 °C	Cn1c(NCCc2cccs2)nc(-c2ccncc2)cc1=O [Compound 19, 2-[[2-(thiophen-2-yl)ethyl]amino]-3-methyl-6-pyridin-4-ylpyrimidin-4(3H)-one]
169.7 to 169.8 °C	Cn1c(NCCc2ccc(OCc3ccccc3)cc2)nc(-c2ccncc2)cc1=O [Compound 21, 2-[[2-(4-phenylmethoxyphenyl)ethyl]amino]-3-methyl-6-pyridin-4-ylpyrimidin-4(3H)-one]
175.4 to 175.6 °C	Cn1c(NCCc2ccc(-c3ccccc3)cc2)nc(-c2ccncc2)cc1=O [Compound 22, 2-[[2-(4-phenylphenyl)ethyl]amino]-3-methyl-6-pyridin-4-ylpyrimidin-4(3H)-one]
218 to 221 °C	O=c1cc(-c2ccncc2)nc(NCCCc2ccccc2)n1Cc1ccccc1 [Compound 28, 2-[[3-(phenyl)propyl]amino]-3-phenylmethyl-6-pyridin-4-ylpyrimidin-4(3H)-one]
242.7 to 243 °C	COc1ccc2[nH]cc(CCNc3nc(-c4ccncc4)cc(=O)n3C)c2c1 [Compound 30, 2-[[2-(5-methoxy-1H-indol-3-yl)ethyl]amino]-3-methyl-6-pyridin-4-ylpyrimidin-4(3H)-one]
168.4 to 168.6 °C	Cn1c(NCCc2c[nH]c3ccc(OCc4ccccc4)cc23)nc(-c2ccncc2)cc1=O [Compound 31, 2-[[2-(5-phenylmethoxy-1H-indol-3-yl)ethyl]amino]-3-methyl-6-pyridin-4-ylpyrimidin-4(3H)-one]
217.2 to 217.3 °C	Cc1cccc2c(CCNc3nc(-c4ccncc4)cc(=O)n3C)c[nH]c12 [Compound 32, 2-[[2-(7-methyl-1H-indol-3-yl)ethyl]amino]-3-methyl-6-pyridin-4-ylpyrimidin-4 (3H)-one]
211.5 to 211.8 °C	Cn1c(NC2Cc3ccccc3C2)nc(-c2ccncc2)cc1=O [Compound 37, 2-[(indan-2-yl)amino]-3-methyl-6-pyridin-4-ylpyrimidin-4(3H)-one]
268 to 270 °C	Cn1c(NC2CCCCC2)nc(-c2ccncc2)cc1=O [Compound 46, 2-Cyclohexylamino-3-methyl-6-pyridin-4-yl-3H-pyrimidin-4-one]
180 to 182 °C	CCCCNc1nc(-c2ccncc2)cc(=O)n1C [Compound 47, 2-Butylamino-3-methyl-6-pyridin-4-yl-3H-pyrimidin-4-one]
157 to 159 °C	CCCCCNc1nc(-c2ccncc2)cc(=O)n1C [Compound 48, 3-Methyl-2-pentylamino-6-pyridin-4-yl-3H-pyrimidin-4-one]
133 to 135 °C	CCCCCCNc1nc(-c2ccncc2)cc(=O)n1C [Compound 49, 2-Hexylamino-3-methyl-6-pyridin-4-yl-3H-pyrimidin-4-one]
121 to 123 °C	CCCCCCCNc1nc(-c2ccncc2)cc(=O)n1C [Compound 50, 2-Heptylamino-3-methyl-6-pyridin-4-yl-3H-pyrimidin-4-one]
113 to 115 °C	CCCCCCCCCNc1nc(-c2ccncc2)cc(=O)n1C [Compound 52, 3-Methyl-2-nonylamino-6-pyridin-4-yl-3H-pyrimidin-4-one]
213 to 217 °C	CC(C)CCNc1nc(-c2ccncc2)cc(=O)n1C [Compound 55, 3-Methyl-2-(3-methyl-butylamino)-6-pyridin-4-yl-3H-pyrimidin-4-one]
218 to 220 °C	Cn1c(NCC2CCCCC2)nc(-c2ccncc2)cc1=O [Compound 56, 2-(Cyclohexylmethyl-amino)-3-methyl-6-pyridin-4-yl-3H-pyrimidin-4-one]
147 to 150 °C	CCCOCCNc1nc(-c2ccncc2)cc(=O)n1C [Compound 57, 3-Methyl-2-(2-propoxy-ethylamino)-6-pyridin-4-yl-3H-pyrimidin-4-one]
177 to 180 °C	Cn1c(NCCCC2CCCCC2)nc(-c2ccncc2)cc1=O [Compound 58, 2-(3-Cyclohexyl-propylamino)-3-methyl-6-pyridin-4-yl-3H-pyrimidin-4-one]

melting point	Structure (SMILES)
118 to 120 °C	CCOCCCNc1nc(-c2ccncc2)cc(=O)n1C [Compound 59, 2-(3-Ethoxy-propylamino)-3-methyl-6-pyridin-4-yl-3H-pyrimidin-4-one]
164 to 165 °C	Cn1c(NCCCCCO)nc(-c2ccncc2)cc1=O [Compound 61, 2-(5-Hydroxy-pentylamino)-3-methyl-6-pyridin-4-yl-3H-pyrimidin-4-one]
159 to 161 °C	Cn1c(NCCCCO)nc(-c2ccncc2)cc1=O [Compound 62, 2-(4-Hydroxy-butylamino)-3-methyl-6-pyridin-4-yl-3H-pyrimidin-4-one]
95 to 98 °C	CC(C)OCCCNc1nc(-c2ccncc2)cc(=O)n1C [Compound 63, 2-(3-Isopropoxy-propylamino)-3-methyl-6-pyridin-4-yl-3H-pyrimidin-4-one]
107 to 109 °C	CCCOCCCNc1nc(-c2ccncc2)cc(=O)n1C [Compound 64, 3-Methyl-2-(3-propoxy-propylamino)-6-pyridin-4-yl-3H-pyrimidin-4-one]
190 to 194 °C	Cn1c(NCCC2CCCC2)nc(-c2ccncc2)cc1=O [Compound 66, 2-(2-Cyclopentyl-ethylamino)-3-methyl-6-pyridin-4-yl-3H-pyrimidin-4-one]
162 to 163 °C	Cn1c(NCCCN2CCCCC2)nc(-c2ccncc2)cc1=O [Compound 67, 3-Methyl-2-(3-piperidin-1-yl-propylamino)-6-pyridin-4-yl-3H-pyrimidin-4-one]
81 to 84 °C	CC(=O)OC(CNc1nc(-c2ccncc2)cc(=O)n1C)c1ccccc1 (stereo not drawn) [Compound 69, Acetic acid 2-(1-methyl-6-oxo-4-pyridin-4-yl-1 ,6-dihydro-pyrimidin-2-ylamino)-1-phenyl-ethyl ester]
107 to 111 °C	Cn1c(NCCC23CC4CC(CC(C4)C2)C3)nc(-c2ccncc2)cc1=O [Compound 70, 2-(2-Adamantan-1-yl-ethylamino)-3-methyl-6-pyridin-4-yl-3H-pyrimidin-4-one]
98 to 101 °C	Cn1c(NCc2cccc(OCCCO)c2)nc(-c2ccncc2)cc1=O [Compound 71, 2-[3-(3-Hydroxy-propoxy)-benzylamino]-3-methyl-6-pyridin-4-yl-3H-pyrimidin-4-one]
198 to 201 °C	CC(=O)OCCCOc1cccc(CNc2nc(-c3ccncc3)cc(=O)n2C)c1 [Compound 73, Acetic acid 3-{3-[(1-methyl-6-oxo-4-pyridin-4-yl-1 ,6-dihydro-pyrimidin-2-ylamino)-methyl]-phenoxy}-propyl ester]
80 to 82 °C	CN(C)CCCOc1cccc(CNc2nc(-c3ccncc3)cc(=O)n2C)c1 [Compound 74, 2-[3-(3-Dimethylamino-propoxy)-benzylamino]-3-methyl-6-pyridin-4-yl-3H-pyrimidin-4-one]
122 to 124 °C	Cn1c(NCCCc2ccccc2)nc(-c2ccncc2)cc1=O [Compound 78, 3-Methyl-2-(3-phenyl-propylamino)-6-pyridin-4-yl-3H-pyrimidin-4-one]
143 to 145 °C	O=c1cc(-c2ccncc2)nc(NCCCc2ccccc2)n1CCO [Compound 86, 3-(2-Hydroxy-ethyl)-2-(3-phenyl-propylamino)-6-pyridin-4-yl-3H-pyrimidin-4-one]
162 to 168 °C	Cn1c(NCCSc2ccccc2)nc(-c2ccncc2)cc1=O [Compound 92, 3-Methyl-2-(2-phenylsulfanyl-ethylamino)-6-pyridin-4-yl-3H-pyrimidin-4-one]
102 to 105 °C	Cn1c(NCCNc2ccccc2)nc(-c2ccncc2)cc1=O [Compound 93, 3-Methyl-2-(2-phenylamino-ethylamino)-6-pyridin-4-yl-3H-pyrimidin-4-one]
193 to 194 °C	Cn1c(NCCOc2ccccc2)nc(-c2ccncc2)cc1=O [Compound 94, 3-Methyl-2-(2-phenoxy-ethylamino)-6-pyridin-4-yl-3H-pyrimidin-4-one]
154 to 156 °C (dec.)	Cn1c(NCCc2ccccn2)nc(-c2ccncc2)cc1=O [Compound 97, 3-Methyl-6-pyridin-4-yl-2(2-pyridin-2-yl-ethylamino)-3H-pyrimidin-4-one]
